# Measured values from patent US6346547B1, “N-substituted amino acids, antioxidant pharmaceutical compositions containing n-substituted amino acids and methods for preventing cardiovascular diseases and/or preventing and/or treating antioxidant responsive diseases therewith” (Checkpoint, Genetics, Inc., priority 1999, dated 2002).
# “And” between values parts separate entries of the source, which are not always exact repeats. Equal values may be shown once.
# Assays:
# [1] = tested on: New Zealand white rabbits; experiment: atherosclerotic lesions in thoracic aorta of cholesterol-fed rabbits; assay type: in vivo, rabbit; settings: 12 weeks
# Description: Ten female new Zealand white rabbits were divided into two groups of five (5) rabbits and subjected to an identical diet of Purina® rabbit chow supplemented with 1% cholesterol. […] A second group of five (5) rabbits received 1% tricine in their drinking water. Both groups were maintained under this feeding protocol for a period of twelve (12) weeks. Plasma samples were taken at study initiation and at two (2) week intervals throughout the study for measurement of total cholesterol. Systemic observations and body weights were regularly recorded. At twelve (12) weeks, the thoracic aorta was harvested from each animal, sliced longitudinally and preserved in 10% neutral formalin for subsequent analysis. Each aorta was individually stained with Sudan IV, and photographed for the extent of atherosclerotic lesions. Comparisons of percent atheroscledrotic lesions on the luminal surface between the groups enabled evaluation of the effect of tricine test article on atherosclerosis in this rabbit model.
# rats = settings: both, rat, in vivo, po, 14 days
# Protocol: It is essential that any amino-acid-based compound used in accordance with the present invention have a low toxicity such that internal use in humans and other mammals is safe and well tolerated. Amino acid-based compounds used in accordance with the invention generally display no acute toxic effects at 1000 mg/Kg in rats after 2 weeks following oral administration. Preferably, amino acid-based compounds used in accordance with the present invention will display no effects at oral doses of at least 2000 mg/Kg in rats. […] For example, a cohort of rats can be fed a given dosage of an amino acid-based compound of general formula (I) and the relative toxic effects of the cohort can be monitored in comparison to a cohort fed a normal diet using standard EPA protocols.
# Two cohorts of rats, each consisting of five females and five males, were marked and weighed. Each rat in a single cohort was administered 2000 mg/kg of tricine in a single oral dosage. Survival and body weight of the rats in each cohort was evaluated after 14 days to determine relative acute toxicity. Survival and general pathology was identical for both the control cohort and the tricine-treated cohort.
# [2] = tested on: human Low Density Lipoprotein; experiment: inhibition of copper catalyzed LDL autoxidation (FOX assay); assay type: biochemical
# Protocol: The antioxidant performance of test compounds was evaluated by measuring the extent of low density lipoprotein hydroxyperoxide by copper catalyzed autoxidation using a published dye based color assay (FOX Assay, see Zadeh, “Methods in Enzymology”, 300, 58 (1999)). The assay is easily performed and read in a 96-well microtitre plate. Microtitre plate readers assure rapid measurement of optical density which gives precise replicate measurements. Samples are evaluated in duplicate of triplicate (n=2 or n=3) with FOX reagent to indicate the level of LDL-hydroperoxide formed. Samples containing only LDL and copper sulfate without test materials, served as a positive control for comparison with identical mixtures containing test materials (Tables 1-6). Inhibition is characterized by a lower optical density than that obtained without test materials (LDL and copper sulfate alone).
# Briefly, the procedure involved mixing human Low Density Lipoprotein (Sigma Chemical Company L2139) at a concentration of between 200-1000 μg/mL in phosphate buffered saline pH−7.4 (Pierce #28372 BupH™ with copper sulfate to a final concentration of 10 μg/mL. Incubation at 25° C. or 37° C., open to air effected oxidation, the mixture was sampled at time zero and between 3 and 20 hours of incubation for measurement of hydroperoxide in the FOX assay. Samples 25-30 μL were diluted with 10 volumes of FOX reagent (ferrous ammonium sulfate and […], see Zadeh, noted above) and allowed to stand for 30 minutes. Thereafter they were read in a microtitre plate reader.
# The inhibition of LDL oxidation by tricine, bicine, monocine, vitamin E, glycine-glycine (Good's buffer compound XIV) and seaweed extract was studied in the procedure above. Using the spectrophotometric technique known as the FOX assay, as described in Jiang, Z., et al., “Ferrous Ion Oxidation in Presence of Xylenol Orange for Detection of Lipid Hydroperoxide in Low Density Lipoprotein”, Analytical Biochemistry, Vol. 202, pp. 384-9 (1992), the oxidation of LDL's in the presence of known hydroxyl radical scavengers (vitamin E and Good's buffer glycine-glycine), and in the presence of therapeutic agents in accordance with the present invention (tricine, bicine, seaweed extract), was monitored. […] Norman Good et al., “Hydrogen Ion Buffers For Biological Research,” Biochemistry, vol. 5, p. 467 (1966). […] Table 6 is a comparison of tricine, bicine, monocine and vitamin E oxidation inhibition of LDL at 37° C., average n=3 measurement with standard deviation.
# [3] = tested on: hippocampal neurons, CA1 area; experiment: gerbil forebrain ischemia (bilateral carotid occlusion): histology of CA1 neuronal damage; assay type: in vivo, Mongolian gerbil; set-up: scale not given here; settings: Group 3, 6 animals examined
# Mongolian gerbils [4] = experiment: gerbil forebrain ischemia (bilateral carotid occlusion): locomotor activity; assay type: in vivo, Mongolian gerbil; settings: individual gerbil, Group 3, approximately 96 hours after surgery
# Protocol: Mongolian gerbils are subjected to bilaterial occlusion of carotid arteries to cause complete forebrain ischemia. The Mongolian gerbil is extensively used as a model of cerebral ischemia because of its unusual cerebral circulation resulting in sensitive and pronounced destruction of hippocampal neuron cells. as a result, bilateral occlusion of carotid arteries causes complete forebrain ischemia. The gerbils were divided into three groups, Group 1 gerbils were sham control and were administered vehicle (control) orally without carotid occlusion. Group 2 received oral tricine treatment at 2000 mg/Kg in vehicle solution both 60 minutes before and after carotid occlusion. […] The arteries were occluded after a midline cervical incision was made to expose both common carotid arteries. The surgery was performed on a heated surface to maintain body temperature. On completion of surgery, the animals were placed on Vetbed® and allowed to recover under a heat lamp. (Group 1) was subjected to the same surgical procedures except that the carotid arteries were not occluded. The day of surgery is identified as Day 1. At approximately 96 hours after surgery, animals were tested for changes in locomotor activity, over two (2) consecutive periods of 15 minutes, using an automated cage. The automated cages contained photoactivated beams at two (2) positions (a low height and a high height) that recorded the number of crossings each gerbil made in each of two consecutive 15 minute periods.
# [5] = tested on: hippocampal neurons, CA1 area; experiment: gerbil forebrain ischemia (bilateral carotid occlusion): histology of CA1 neuronal damage; assay type: in vivo, Mongolian gerbil; set-up: Total Rating, severity of neuronal damage to CA1 area, individual gerbil: scale not given here; settings: oral tricine 2000 mg/Kg 60 minutes before and after carotid occlusion, day 5
# Protocol: Mongolian gerbils are subjected to bilaterial occlusion of carotid arteries to cause complete forebrain ischemia. The Mongolian gerbil is extensively used as a model of cerebral ischemia because of its unusual cerebral circulation resulting in sensitive and pronounced destruction of hippocampal neuron cells. as a result, bilateral occlusion of carotid arteries causes complete forebrain ischemia. The gerbils were divided into three groups, Group 1 gerbils were sham control and were administered vehicle (control) orally without carotid occlusion. Group 2 received oral tricine treatment at 2000 mg/Kg in vehicle solution both 60 minutes before and after carotid occlusion. Group […] gerbils received vehicle (control) 60 minutes before and after occlusion. The arteries were occluded after a midline cervical incision was made to expose both common carotid arteries. The surgery was performed on a heated surface to maintain body temperature. On completion of surgery, the animals were placed on Vetbed® and allowed to recover under a heat lamp. (Group 1) was subjected to the same surgical procedures except that the carotid arteries were not occluded. The day of surgery is identified as Day 1. Animals were killed on day 5, after completion of locomotor testing, by overdose with anaesthetic and perfusion with saline followed by a solution containing 10% neutral buffered formalin to fix the brain in situ. The brains were removed by dissection, 5 μm sections were taken at the level of the dorsal hippocampus, to coincide with CA1 area, and stained with haematoxylin and eosin. the sections were examined under light microscope, rated for severity of neuronal damage to the CA1 area.
# Mongolian gerbils [6] = experiment: gerbil forebrain ischemia (bilateral carotid occlusion): locomotor activity; assay type: in vivo, Mongolian gerbil; settings: individual gerbil, Group 3, approximately 96 hours after surgery, first 15 minute period
# [7] = 1% tricine in drinking water, 1% cholesterol diet, Sudan IV stain
# [8] = 1% tricine in drinking water, five rabbits, control mean 65
# [9] = 10 mM, time 0 hours, 37° C., average n=3, none 0.03
# [10] = 10 mM, time 3 hours, 37° C., average n=3, none 0.99
smiles,measurement,setting,value
"O=C(O)CNC(CO)(CO)CO [Tricine, N-tris(hydroxymethyl)methyl glycine]","Arch Area, percent atherosclerotic lesions on luminal surface, individual rabbit",[1]; [7],19% and 39% and 27% and 17% and 22%
same,"Descending Area, percent atherosclerotic lesions on luminal surface, individual rabbit",[1]; [7],21% (2×) and 28% and 8% and 17%
same,"Total Area, percent atherosclerotic lesions on luminal surface, individual rabbit",[1]; [7],20% and 38% and 26% and 14% and 21%
same,"Arch Area, Mean Value","[1]; 1% tricine in drinking water, five rabbits, control mean 63",25%
same,"Descending Area, Mean Value",[1]; [8],19%
same,"Total Area, Mean Value",[1]; [8],24%
same,"Arch Area, Median Value","[1]; 1% tricine in drinking water, five rabbits, control median 65",22%
same,"Total Area, Median Value","[1]; 1% tricine in drinking water, five rabbits, control median 67",21%
same,"Descending Area, Median Value","[1]; 1% tricine in drinking water, five rabbits, control median 68",21%
same,reduced plaque deposits in the aorta,[1]; tricine treated rabbits versus control group,63%
same,preliminary acute toxicity level,rats,> 2000 mg/kg
same,FOX assay OD (LDL hydroperoxide),[2]; [9],−0.01
same,FOX assay OD (LDL hydroperoxide),[2]; [10],0.05
same,FOX assay OD (LDL hydroperoxide),"[2]; Tricine 25 μM, time 0 hours, room temperature, average n = 3",−0.012
same,FOX assay OD (LDL hydroperoxide),"[2]; Tricine 25 μM, time 4 hours, room temperature, average n = 3, none 0.295",0.061
same,FOX assay OD (LDL hydroperoxide),"[2]; Tricine 50 μM, time 0 hours, room temperature, average n = 3",−0.007
same,FOX assay OD (LDL hydroperoxide),"[2]; Tricine 50 μM, time 4 hours, room temperature, average n = 3, none 0.295",0.038
same,FOX assay OD (LDL hydroperoxide),"[2]; Tricine 100 μM, time 0 hours, room temperature, average n = 3",0.0645
same,FOX assay OD (LDL hydroperoxide),"[2]; Tricine 100 μM, time 4 hours, room temperature, average n = 3, none 0.295",0.028
same,Mean Score for Group,[3]; occluded vehicle Group 7: 4.3,2.5
same,Total Score for Group,[3]; occluded vehicle Group 7: 13 (3 animals),15
same,"locomotor activity, beam crossings, High beam, Total",Mongolian gerbils [4],71 and 51 and 76 and 56 and 174
same,"locomotor activity, beam crossings, Low beam, Total",Mongolian gerbils [4],665 and 691 and 525 and 615 and 727 and 451
same,"locomotor activity, beam crossings, Low beam, 15 min",Mongolian gerbils [4]; first 15 minute period,455 and 559 and 456 and 553 and 543 and 372
same,"locomotor activity, beam crossings, High beam, 30 min",Mongolian gerbils [4]; second 15 minute period,15 and 7 and 9 and 16 and 12 and 64
same,"locomotor activity, beam crossings, Low beam, 30 min",Mongolian gerbils [4]; second 15 minute period,210 and 132 and 69 and 62 and 184 and 79
same,"Side 1 Rating, severity of neuronal damage to CA1 area, individual gerbil",[5],3 (Marked→approximately 75% to 100% of neurons damaged) and 1 (Minimal→up to approximately 25% of neurons damaged) (5×)
same,"Side 2 Rating, severity of neuronal damage to CA1 area, individual gerbil",[5],3 (Marked→approximately 75% to 100% of neurons damaged) and 1 (Minimal→up to approximately 25% of neurons damaged) (4×) and 0
same,"Total Rating, severity of neuronal damage to CA1 area, individual gerbil",[5]; sum of both sides,6 and 2 (4×) and 1
same,"locomotor activity, beam crossings, High beam, 15 min",Mongolian gerbils [6],56 and 44 (2×) and 67 and 55 and 110
"O=C(O)CN(CCO)CCO [Bicine, N,N-bis(hydroxyethyl)glycine]",FOX assay OD (LDL hydroperoxide),[2]; [9],−0.02
same,FOX assay OD (LDL hydroperoxide),[2]; [10],0.02
same,FOX assay OD (LDL hydroperoxide),"[2]; Bicine 25 μM, time 0 hours, room temperature, average n = 3",−0.010
same,FOX assay OD (LDL hydroperoxide),"[2]; Bicine 25 μM, time 4 hours, room temperature, average n = 3, none 0.295",0.050
same,FOX assay OD (LDL hydroperoxide),"[2]; Bicine 50 μM, time 0 hours, room temperature, average n = 3",−0.007
same,FOX assay OD (LDL hydroperoxide),"[2]; Bicine 50 μM, time 4 hours, room temperature, average n = 3, none 0.295",0.030
same,FOX assay OD (LDL hydroperoxide),"[2]; Bicine 100#M, time 0 hours, room temperature, average n = 3",−0.002
same,FOX assay OD (LDL hydroperoxide),"[2]; Bicine 100#M, time 4 hours, room temperature, average n = 3, none 0.295",0.04
"O=C(O)CNCCO [Monocine, N-hydroxyethyl glycine]",FOX assay OD (LDL hydroperoxide),[2]; [9],−0.04
same,FOX assay OD (LDL hydroperoxide),[2]; [10],0.05
